Tests used:
Format in all cases: in vivo
barnyardgrass (Ec) [1] = test: Test Example 2: herbicidal effects by upland field soil treatment; details: 100 g of the active ingredient per 10 ares;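 note: grade of growth control; 5 = at least 90%; 4 = 70 to 90%; 3 = 50 to 70%; 2 = 30 to 50%; 1 = 10 to 30%; 0 = under 10%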
From the text: (§1) (Test on Herbicidal Effects by Upland Field Soil Treatment)

pale smartweed (Po) [2] = test: as above; details: 100 g of the active ingredient per 10 ares
From the text: as §1

Digitaria ciliaris (Di) = test: as above; details: 100 g of the active ingredient per 10 ares;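 note: grade of growth control; 5 = at least 90%; 4 = 70 to 90%; 3 = 50 to 70%; 2 = 30 to 50%; 1 = 10 to 30%; 0 = under 10%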
From the text: as §1

[3] = tested on: common lambsquarters (Ch); test: as above; details: 100 g of the active ingredient per 10 ares
From the text: as §1

slender amaranth (Am) [4] = test: as above; details: 100 g of the active ingredient per 10 ares
From the text: as §1

rice flatsedge (Ci) [5] = test: as above; details: 100 g of the active ingredient per 10 ares
From the text: as §1

bulrush (Sc) = test: Test Example 1: herbicidal effects by paddy field soil treatment; details: 100 g of the active ingredient per 10 ares, 21st day after the application, index 0-5 of Table 47;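 note: grade of growth control; 5 = at least 90%; 4 = 70 to 90%; 3 = 50 to 70%; 2 = 30 to 50%; 1 = 10 to 30%; 0 = under 10%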
Method: (§2) (Test on Herbicidal Effects by Paddy Field Soil Treatment)
(§3) In a plastic pot (surface area: 100 cm^2) filled with paddy field soil, barnyardgrass (Ec), monochoria (Mo) and bulrush (Sc) were sown after puddling and leveling, and flooded to a water depth of 3 cm. […] The dose was 100 g of the active ingredient per 10 ares. The plants were then cultured in a green house, and the evaluation of the herbicidal effects was conducted on the 21st day after the application in accordance with the standards as identified in Table 47.

barnyardgrass (Ec) [6] = test: as above; details: 100 g of the active ingredient per 10 ares, 21st day after the application, index 0-5 of Table 47
Method: as §2, §3

monochoria (Mo) = test: as above; details: 100 g of the active ingredient per 10 ares, 21st day after the application, index 0-5 of Table 47;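 note: grade of growth control; 5 = at least 90%; 4 = 70 to 90%; 3 = 50 to 70%; 2 = 30 to 50%; 1 = 10 to 30%; 0 = under 10%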
Method: as §2, §3

barnyardgrass (Ec) [7] = test: Test Example 3: herbicidal effects by upland field foliage treatment; set-up: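 grade of growth control; 5 = at least 90%; 4 = 70 to 90%; 3 = 50 to 70%; 2 = 30 to 50%; 1 = 10 to 30%; 0 = under 10%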
Method: (§4) (Test on Herbicidal Effects by Upland Field Foliage Treatment)
(§5) In a plastic pot (surface area: 120 cm^2) filled with sand, barnyardgrass (Ec), Diaitaria ciliaris (Di), pale smartweed (Po), slender amaranth (Am), common lambsquarters (Ch) and rice flatsedge (Ci) were sown and covered with soil and were cultured in a green house for 2 weeks. […] The plants were then cultured in the green house, and the evaluation of the herbicidal effects was conducted on the 14th day after the treatment in accordance with the standards as identified in Table 47. Symbol—represents “not tested”.

pale smartweed (Po) [8] = test: as above; set-up: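 grade of growth control; 5 = at least 90%; 4 = 70 to 90%; 3 = 50 to 70%; 2 = 30 to 50%; 1 = 10 to 30%; 0 = under 10%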
Method: as §4, §5

[9] = tested on: common lambsquarters (Ch); test: as above; set-up: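 grade of growth control; 5 = at least 90%; 4 = 70 to 90%; 3 = 50 to 70%; 2 = 30 to 50%; 1 = 10 to 30%; 0 = under 10%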
Method: as §4, §5

Diaitaria ciliaris (Di) = test: as above; set-up: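 grade of growth control; 5 = at least 90%; 4 = 70 to 90%; 3 = 50 to 70%; 2 = 30 to 50%; 1 = 10 to 30%; 0 = under 10%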
Method: as §4, §5

slender amaranth (Am) [10] = test: as above; set-up: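 grade of growth control; 5 = at least 90%; 4 = 70 to 90%; 3 = 50 to 70%; 2 = 30 to 50%; 1 = 10 to 30%; 0 = under 10%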
Method: as §4, §5

rice flatsedge (Ci) [11] = test: as above; set-up: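 grade of growth control; 5 = at least 90%; 4 = 70 to 90%; 3 = 50 to 70%; 2 = 30 to 50%; 1 = 10 to 30%; 0 = under 10%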
Method: as §4, §5

[12] = 21st day after the application, index 0-5 of Table 47
[13] = 100 g of the active ingredient per 10 ares, evaluated on the 14th day after treatment
[14] = evaluated on the 21st day after application
[15] = 100 g active ingredient per 10 ares, evaluated 14th day after treatment

SMILES	Herbicidal effects Ec (barnyardgrass (Ec) [1]; [12])	Herbicidal effects Po (pale smartweed (Po) [2]; [12])	Herbicidal effects Ch [3, 12]	Herbicidal effects Am (slender amaranth (Am) [4]; [12])	Herbicidal effects Ci (rice flatsedge (Ci) [5]; [12])	Herbicidal effects Sc (bulrush (Sc))	Herbicidal effects Ec (barnyardgrass (Ec) [6])	Herbicidal effects Mo (monochoria (Mo))	Herbicidal effects Ec (barnyardgrass (Ec) [1]; [14])	Herbicidal effects Po (pale smartweed (Po) [2]; [14])	Herbicidal effects Di (Digitaria ciliaris (Di); [14])	Herbicidal effects Ch [3, 14]	Herbicidal effects Am (slender amaranth (Am) [4]; [14])	Herbicidal effects Ci (rice flatsedge (Ci) [5]; [14])	further results
CCCC(Oc1cc(-c2ccc(C(F)(F)F)n(C)c2=O)c(F)cc1Cl)C(=O)OCC (racemic) [1-121]	5	5	5	5	5	5	5	5							Herbicidal effects Di (Digitaria ciliaris (Di); [12]): 5; Herbicidal effects Ec (barnyardgrass (Ec) [7]; [13]): 5; Herbicidal effects Po (pale smartweed (Po) [8]; [13]): 5; Herbicidal effects Ch [9, 13]: 5; Herbicidal effects Di (Diaitaria ciliaris (Di); [13]): 5; Herbicidal effects Am (slender amaranth (Am) [10]; [13]): 5; Herbicidal effects Ci (rice flatsedge (Ci) [11]; [13]): 5
CCOC(=O)C(C)OC(=O)c1cc(-c2ccc(C(F)(F)F)n(C)c2=O)c(F)cc1Cl (racemic) [1-143]	5	5	5	5	5	5	5	5							Herbicidal effects Di (Digitaria ciliaris (Di); [12]): 5; Herbicidal effects Ec (barnyardgrass (Ec) [7]; [13]): 5; Herbicidal effects Po (pale smartweed (Po) [8]; [13]): 5; Herbicidal effects Ch [9, 13]: 5; Herbicidal effects Di (Diaitaria ciliaris (Di); [13]): 5; Herbicidal effects Am (slender amaranth (Am) [10]; [13]): 5; Herbicidal effects Ci (rice flatsedge (Ci) [11]; [13]): 5
Cn1c(C(F)(F)F)ccc(-c2cc(Oc3nc(Cl)cs3)c(Cl)cc2F)c1=O [1-103]	4	5	5	5	5	5	5	5							Herbicidal effects Di (Digitaria ciliaris (Di); [12]): 5
COc1cc(-c2ccc(C(F)(F)F)n(C)c2=O)ccc1Cl [1-108]	5	5	5	5	5	5	5	5							Herbicidal effects Ec (barnyardgrass (Ec) [7]; [13]): 5; Herbicidal effects Po (pale smartweed (Po) [8]; [13]): 5; Herbicidal effects Ch [9, 13]: 5; Herbicidal effects Di (Diaitaria ciliaris (Di); [13]): 5; Herbicidal effects Am (slender amaranth (Am) [10]; [13]): 5; Herbicidal effects Ci (rice flatsedge (Ci) [11]; [13]): 5
C#CCSc1cc(-c2ccc(C(F)(F)F)n(C)c2=O)ccc1Cl [1-112]	5	5	5	5	5	5	5	5							Herbicidal effects Di (Digitaria ciliaris (Di); [12]): 5
Cn1c(C(F)(F)F)ccc(-c2cc(Sc3ncccn3)c(Cl)cc2Cl)c1=O [1-131]	5	5	5	5	5	5	5	5							Herbicidal effects Di (Digitaria ciliaris (Di); [12]): 5
Cn1c(C(F)(F)F)ccc(-c2ccc(Cl)c(Cl)c2)c1=O [Compound 1-185]									5	4	5	5	5	5	
Cn1c(C(F)(F)F)ccc(-c2cc(Cl)c(Cl)cc2Cl)c1=O [Compound 1-186]						4	5	5	5	5	5	5	5	5	
CNC(=O)COc1cc(-c2ccc(C(F)(F)F)n(C)c2=O)c(F)cc1Cl [Compound 1-209]						5	5	5	4	5	4	5	5	5	
CNS(=O)(=O)c1cc(-c2ccc(C(F)(F)F)n(C)c2=O)ccc1Cl [Compound 1-257]						5	5	5	5	5	5	5	5	5	
CCCN1C(=O)COc2cc(F)c(-c3ccc(C(F)(F)F)n(C)c3=O)cc21 [Compound 2-10]									5	5	5	5	5	5	Herbicidal effects Ec (barnyardgrass (Ec) [7]; [15]): 5; Herbicidal effects Po (pale smartweed (Po) [8]; [15]): 5; Herbicidal effects Ch [9, 15]: 5; Herbicidal effects Di (Diaitaria ciliaris (Di); [15]): 5; Herbicidal effects Am (slender amaranth (Am) [10]; [15]): 5; Herbicidal effects Ci (rice flatsedge (Ci) [11]; [15]): 5
Cn1c(C(F)(F)F)ccc(-c2cc3c(cc2F)OCC(=O)N3CC=CCl)c1=O [Compound 2-14]									5	5	5	5	5	5	Herbicidal effects Ec (barnyardgrass (Ec) [7]; [15]): 5; Herbicidal effects Po (pale smartweed (Po) [8]; [15]): 5; Herbicidal effects Ch [9, 15]: 5; Herbicidal effects Di (Diaitaria ciliaris (Di); [15]): 5; Herbicidal effects Am (slender amaranth (Am) [10]; [15]): 5; Herbicidal effects Ci (rice flatsedge (Ci) [11]; [15]): 5
C#CCN1C(=O)CSc2cc(F)c(-c3ccc(C(F)(F)F)n(C)c3=O)cc21 [Compound 2-21]						5	5	5	5	5	5	5	5	5	
Cn1c(C(F)(F)F)ccc(-c2cc3c(cc2Cl)OCC(=O)N3)c1=O [Compound 2-27]						5	5	5	5	5	5	5	5	5	
COCc1cc2c(-c3ccc(C(F)(F)F)n(C)c3=O)c(Cl)cc(Cl)c2o1 [Compound 4-13]						5	5	5	5	5	5	5	5	5	
CCOCc1cc2c(-c3ccc(C(F)(F)F)n(C)c3=O)c(Cl)cc(Cl)c2o1 [Compound 4-30]						5	5	5	5	5	5	5	5	5	
CCCOC(C)c1cc2c(-c3ccc(C(F)(F)F)n(C)c3=O)c(F)cc(Cl)c2o1 (centres unmarked) [Compound 4-37]									5	5	5	5	5	5	Herbicidal effects Ec (barnyardgrass (Ec) [7]; [15]): 5; Herbicidal effects Po (pale smartweed (Po) [8]; [15]): 5; Herbicidal effects Ch [9, 15]: 5; Herbicidal effects Di (Diaitaria ciliaris (Di); [15]): 5; Herbicidal effects Am (slender amaranth (Am) [10]; [15]): 5; Herbicidal effects Ci (rice flatsedge (Ci) [11]; [15]): 5
Cn1cc(-c2ccc(Cl)cc2F)c(=O)cc1C(F)(F)F [Compound 6-2]									4	5	5	5	5	5	Herbicidal effects Ec (barnyardgrass (Ec) [7]; [15]): 4; Herbicidal effects Po (pale smartweed (Po) [8]; [15]): 5; Herbicidal effects Ch [9, 15]: 5; Herbicidal effects Di (Diaitaria ciliaris (Di); [15]): 5; Herbicidal effects Am (slender amaranth (Am) [10]; [15]): 5; Herbicidal effects Ci (rice flatsedge (Ci) [11]; [15]): 5
Cn1c(C(F)(F)F)ccc(-c2ccc(Cl)cc2)c1=O [Compound No. 1-1]	5	5	5	5	5	5	5	5							Herbicidal effects Di (Digitaria ciliaris (Di); [12]): 5
C#CCOc1cc(-c2c(C#N)cc(C(F)(F)F)n(C)c2=O)c(F)cc1Cl [Compound No. 11-6, 3-[2-fluoro-4-chloro-5-(2-propionyloxy)phenyl]-4-cyano-1-methyl-6-trifluoromethyl-2(1H)-pyridone]						5	5	5	5	5	5	5	5	5	
Cc1ccc(-c2ccc(Cl)cc2)c(=O)[nH]1 [comparative agent, reference compound]									0	0	0	0	0	0	
